From ChEMBL document CHEMBL1955798, “Novel coumarins and 2-thioxo-coumarins as inhibitors of the tumor-associated carbonic anhydrases IX and XII” (Bioorg Med Chem, 2012) come the findings set out here.

One assay concerns the target Carbonic anhydrase 2 (Homo sapiens, UniProt P00918). Briefly: Inhibition of human carbonic anhydrase 2 after 6 hrs by stop-flow CO2 hydration assay.
The target in another assay is Carbonic anhydrase 9 (Homo sapiens, UniProt Q16790). Briefly: Inhibition of human carbonic anhydrase 9 after 6 hrs by stop-flow CO2 hydration assay.
Another assay concerns the target Carbonic anhydrase 1 (Homo sapiens, UniProt P00915). Kind of assay: Inhibition of human carbonic anhydrase 1 after 6 hrs by stop-flow CO2 hydration assay.
In a further assay the target is Carbonic anhydrase 12 (Homo sapiens, UniProt O43570). Kind of assay: Inhibition of human carbonic anhydrase 12 after 6 hrs by stop-flow CO2 hydration assay.
Carbonic anhydrase 12, sequence (O43570 whole entry): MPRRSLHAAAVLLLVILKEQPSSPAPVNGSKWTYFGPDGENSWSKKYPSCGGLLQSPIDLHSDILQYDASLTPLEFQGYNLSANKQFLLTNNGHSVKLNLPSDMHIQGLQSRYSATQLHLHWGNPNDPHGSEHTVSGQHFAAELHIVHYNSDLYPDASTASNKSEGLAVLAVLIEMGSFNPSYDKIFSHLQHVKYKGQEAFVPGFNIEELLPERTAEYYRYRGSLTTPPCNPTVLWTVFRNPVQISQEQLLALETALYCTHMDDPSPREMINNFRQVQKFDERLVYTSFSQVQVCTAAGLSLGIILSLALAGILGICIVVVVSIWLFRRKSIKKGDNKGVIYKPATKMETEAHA

Carbonic anhydrase 1, sequence (P00915 whole entry): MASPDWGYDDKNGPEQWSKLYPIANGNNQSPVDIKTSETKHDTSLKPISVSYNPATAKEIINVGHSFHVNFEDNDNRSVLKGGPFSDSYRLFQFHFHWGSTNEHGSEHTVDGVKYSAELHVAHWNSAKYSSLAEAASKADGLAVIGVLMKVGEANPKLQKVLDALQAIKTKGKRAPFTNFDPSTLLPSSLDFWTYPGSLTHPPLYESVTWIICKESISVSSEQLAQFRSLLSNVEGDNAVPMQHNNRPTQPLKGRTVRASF

What is called Ki is a measure of affinity in units of concentration, obtained from inhibition or displacement. Low values mean a stronger hold on the target, high ones a looser hold on the target. Turning to `C=CCOc1cc(=O)oc2ccccc12`, the Ki at Carbonic anhydrase 2 was > 200 µM; on Carbonic anhydrase 9, 0.21 µM.
For `O=c1ccc2ccc(OCCF)cc2o1`, in that order: > 200 µM and 0.68 µM.
For the compound `CC(C)(C)[Si](C)(C)Oc1ccc2ccc(=S)oc2c1`, the Ki was > 200 µM on Carbonic anhydrase 2 and 0.96 µM at Carbonic anhydrase 9.
On to `CC(C)(C)[Si](C)(C)Oc1ccc2oc(=S)ccc2c1`, for which the Ki was > 200 µM on Carbonic anhydrase 2 and 0.86 µM on Carbonic anhydrase 9.
On to `Cc1cc(C)cc(NC(=O)Nc2ccc3c(C)cc(=O)oc3c2)c1`, for which the Ki at Carbonic anhydrase 2 was > 200 µM.
As for `C=CCOc1cc(=S)oc2ccccc12`, on Carbonic anhydrase 2, the Ki was > 200 µM.
Regarding `Cc1ccc(S(=O)(=O)OCCOc2ccc3ccc(=O)oc3c2)cc1`, the Ki on Carbonic anhydrase 2 is > 200 µM; on Carbonic anhydrase 9 it was 0.53 µM.
Take `Oc1ccc2oc(=S)ccc2c1`: the Ki at Carbonic anhydrase 9 was 0.8 µM.
Consider `Oc1ccc2ccc(=S)oc2c1`, for which the Ki at Carbonic anhydrase 2 is > 200 µM; on Carbonic anhydrase 9, 0.78 µM.
With `C=CCOc1ccc2oc(=S)ccc2c1`, the Ki on Carbonic anhydrase 9 amounted to 3.26 µM.
For `C=CCOc1ccc2ccc(=S)oc2c1`, the Ki on Carbonic anhydrase 2 was > 200 µM; at Carbonic anhydrase 9, 3.23 µM.
As to `C=CCOc1ccc2ccc(=O)oc2c1` [7-ALLYLOXYCOUMARIN], the Ki at Carbonic anhydrase 1 was 72.9 µM; on Carbonic anhydrase 2 it was > 200 µM; at Carbonic anhydrase 9 it was 0.73 µM; on Carbonic anhydrase 12, 0.64 µM.
`CC(=O)Nc1ccc2c(C)cc(=O)oc2c1`: the Ki at Carbonic anhydrase 2 is > 200 µM; on Carbonic anhydrase 9, 0.39 µM.
`C=CCOc1ccc2oc(=O)ccc2c1`: the Ki on Carbonic anhydrase 2 was > 200 µM; at Carbonic anhydrase 9, 0.93 µM.
For `O=c1ccc2ccc(OCCO)cc2o1` the same measures were > 200 µM and 0.92 µM.
`CC(C)(C)[Si](C)(C)Oc1ccc2oc(=O)ccc2c1` yielded a Ki at Carbonic anhydrase 9 of 0.8 µM.
`Cc1cc(=O)oc2cc(NC(=O)OC(C)(C)C)ccc12`: the results for the Ki at Carbonic anhydrase 2 and on Carbonic anhydrase 9 were > 200 µM and 0.97 µM, respectively.
